Laboratory results from patent US8580784B2, “Method for treating a disease related to the glucocorticoid receptor” (Santen Pharmaceutical Co., Ltd., priority 2006, dated 2013).

target: T1, Recombinant human GR (Homo sapiens, UniProt P04150); assay: Evaluation test for binding activity to glucocorticoid receptor: receptor competitor assay by fluorescence polarization (Invitrogen GR competitor assay kit, cat No. P2816); settings: 20 μM test compound solution, 10 μL per well plus 5 μL 4×GS1 and 5 μL 4×GR solution; room temperature 2 to 4 hours; a ratio of 100% or more is indicated by 100%
T1 construct: purchased Invitrogen P2816
T1 sequence (P04150 1-777): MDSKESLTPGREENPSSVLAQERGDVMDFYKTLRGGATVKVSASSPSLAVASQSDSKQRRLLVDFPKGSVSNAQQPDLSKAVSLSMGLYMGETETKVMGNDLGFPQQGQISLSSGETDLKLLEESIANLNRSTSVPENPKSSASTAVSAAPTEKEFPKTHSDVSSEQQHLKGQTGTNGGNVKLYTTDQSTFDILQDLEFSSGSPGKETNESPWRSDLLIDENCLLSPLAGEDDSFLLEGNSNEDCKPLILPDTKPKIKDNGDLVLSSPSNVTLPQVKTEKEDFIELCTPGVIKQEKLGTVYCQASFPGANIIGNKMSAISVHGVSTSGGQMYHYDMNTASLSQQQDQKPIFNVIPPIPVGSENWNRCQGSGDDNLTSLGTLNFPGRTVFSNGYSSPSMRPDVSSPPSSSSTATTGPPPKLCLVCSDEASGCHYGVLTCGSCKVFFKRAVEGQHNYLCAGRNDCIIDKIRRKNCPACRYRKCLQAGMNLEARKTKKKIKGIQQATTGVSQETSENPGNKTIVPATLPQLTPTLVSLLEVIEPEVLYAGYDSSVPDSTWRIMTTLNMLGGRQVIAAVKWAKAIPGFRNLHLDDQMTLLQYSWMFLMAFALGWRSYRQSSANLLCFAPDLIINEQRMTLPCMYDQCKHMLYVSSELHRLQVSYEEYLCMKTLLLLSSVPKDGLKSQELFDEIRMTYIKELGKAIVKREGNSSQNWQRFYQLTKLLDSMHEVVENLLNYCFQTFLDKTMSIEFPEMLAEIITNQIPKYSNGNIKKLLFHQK
Protocol: A detailed explanation of this matter will be described in the section of “Pharmacological Test” in Examples described below. In order to find the usefulness of the present compound as a pharmaceutical, a glucocorticoid receptor competitor assay was carried out by a fluorescence polarization method by using a glucocorticoid receptor competitor assay kit (manufactured by Invitrogen, cat No. P2816) to study the glucocorticoid receptor binding activity of the present compound.
1. Evaluation Test for Binding Activity to Glucocorticoid Receptor (hereinafter referred to as “GR”)
In order to evaluate a binding activity to GR, a receptor competitor assay was carried out by a fluorescence polarization method. In the assay, a GR competitor assay kit (manufactured by Invitrogen, cat No. P2816) was used, and a procedure was carried out according to the protocol attached to the kit. Hereinafter, the specific method will be described.
(Preparation of Reagents)
GR screening buffer: A buffer containing 10 mM potassium phosphate (pH 7.4), 20 mM sodium molybdate (Na2MoO4), 0.1 mM ethylene diamine tetraacetic acid (EDTA), 5 mM dithiothreitol (DTT), 0.1 mM stabilizing peptide and 2% dimethylsulfoxide was prepared.
4×GS1 solution: Fluormone™ GS1, which is a fluorescent glucocorticoid ligand, was diluted with GR screening buffer, whereby a 4 nM solution was prepared.
4×GR solution: Recombinant human GR was diluted with GR screening buffer, whereby a 16 nM solution was prepared.
(Preparation of Test Compound Solution)
After a test compound was dissolved in dimethylsulfoxide, the resulting solution was diluted with GR screening buffer, whereby a 20 μM test compound solution was prepared.
(Test Method and Measurement Method)
1) The test compound solution was added in an amount of 10 μL into each well of a 384-well plate, and then, 4×GS1 solution and 4×GR solution were added in an amount of 5 μL into each well, respectively.
2) The plate was incubated in a dark place at room temperature for 2 to 4 hours.
3) By using a multimode plate reader, Analyst™ HT (manufactured by LJL Biosystems), fluorescence polarization of each well was measured. As the blank, a well containing GR screening buffer in place of the test compound and 4×GS1 solution was used.
4) The same procedure as that in the above 1) to 3) was carried out except that GR screening buffer was used in place of the test compound solution, and the obtained result was taken as the negative control.
5) The same procedure as that in the above 1) to 3) was carried out except that 2 mM dexamethasone was used in place of the test compound solution, and the obtained result was taken as the positive control.
(Calculation Equation of GR Binding Ratio)
A GR binding ratio (%) was calculated from the following equation. GR binding ratio(%)=100×[1−(fluorescence polarization of test compound solution−fluorescence polarization of positive control solution)/(fluorescence polarization of negative control solution−fluorescence polarization of positive control solution)] (Test Results and Discussion)

inhibition at 20 µM (stock) | SMILES
99% | COc1ccccc1NCc1c(-c2ccc(OC(=O)C(C)C)cc2OC)ccc2c1C(C)=CC(C)(C)N2 [Compound 1-14, 6-(4-Isopropylcarbonyloxy-2-methoxyphenyl)-5-(2-methoxyphenylaminomethyl)-2,2,4-trimethyl-1,2-dihydroquinoline]
99% | COc1ccccc1NCc1c(-c2ccc(OC(=O)c3cccs3)cc2OC)ccc2c1C(C)=CC(C)(C)N2 [Compound 1-15, 5-(2-Methoxyphenylaminomethyl)-6-[2-methoxy-4-(thiophen-2-ylcarbonyloxy)phenyl]-2,2,4-trimethyl-1,2-dihydroquinoline]
100% | COc1cc(OC(=O)c2cccnc2)ccc1-c1ccc2c(c1CNc1cc(F)ccc1C)C(C)=CC(C)(C)N2 [Compound 1-16, 5-(5-Fluoro-2-methylphenylaminomethyl)-6-[2-methoxy-4-(pyridin-3-ylcarbonyloxy)phenyl]-2,2,4-trimethyl-1,2-dihydroquinoline]
99% | COc1cc(OC(=O)c2ccco2)ccc1-c1ccc2c(c1CNc1cc(F)ccc1C)C(C)=CC(C)(C)N2 [Compound 1-17, 5-(5-Fluoro-2-methylphenylaminomethyl)-6-[4-(furan-2-ylcarbonyloxy)-2-methoxyphenyl]-2,2,4-trimethyl-1,2-dihydroquinoline]
86% | COC(=O)c1cccc(C(=O)Oc2ccc(-c3ccc4c(c3CNc3ccccc3OC)C(C)=CC(C)(C)N4)c(OC)c2)c1 [Compound 1-18, 6-[2-Methoxy-4-(3-methoxycarbonylbenzoyloxy)phenyl]-5-(2-methoxyphenylaminomethyl)-2,2,4-trimethyl-1,2-dihydroquinoline]
81% | COc1ccc(C(=O)Oc2ccc(-c3ccc4c(c3CNc3ccccc3OC)C(C)=CC(C)(C)N4)c(OC)c2)cc1 [Compound 1-22, 6-[2-Methoxy-4-(4-methoxybenzoyloxy)phenyl]-5-(2-methoxyphenylaminomethyl)-2,2,4-trimethyl-1,2-dihydroquinoline]
86% | COc1ccccc1NCc1c(-c2ccc(OC(=O)c3ccc(F)cc3)cc2OC)ccc2c1C(C)=CC(C)(C)N2 [Compound 1-23, 6-[4-(4-Fluorobenzoyloxy)-2-methoxyphenyl]-5-(2-methoxyphenylaminomethyl)-2,2,4-trimethyl-1,2-dihydroquinoline]
90% | COc1ccccc1NCc1c(-c2ccc(OC(=O)c3ccccc3SC)cc2OC)ccc2c1C(C)=CC(C)(C)N2 [Compound 1-26, 6-[2-Methoxy-4-(2-methylthiobenzoyloxy)phenyl]-5-(2-methoxyphenylaminomethyl)-2,2,4-trimethyl-1,2-dihydroquinoline]
87% | COc1ccccc1NCc1c(-c2ccc(OC(=O)c3cccc(C(C)=O)c3)cc2OC)ccc2c1C(C)=CC(C)(C)N2 [Compound 1-27, 6-[4-(3-Acetylbenzoyloxy)-2-methoxyphenyl]-5-(2-methoxyphenylaminomethyl)-2,2,4-trimethyl-1,2-dihydroquinoline]
88% | COc1ccccc1NCc1c(-c2ccc(OC(=O)c3sccc3Cl)cc2OC)ccc2c1C(C)=CC(C)(C)N2 [Compound 1-28, 6-[4-(3-Chlorothiophen-2-ylcarbonyloxy)-2-methoxyphenyl]-5-(2-methoxyphenylaminomethyl)-2,2,4-trimethyl-1,2-dihydroquinoline]
93% | COc1ccccc1NCc1c(-c2ccc(OC(=O)c3occc3C)cc2OC)ccc2c1C(C)=CC(C)(C)N2 [Compound 1-29, 6-[2-Methoxy-4-(3-methylfuran-2-ylcarbonyloxy)phenyl]-5-(2-methoxyphenylaminomethyl)-2,2,4-trimethyl-1,2-dihydroquinoline]
94% | COc1ccccc1NCc1c(-c2ccc(OC(=O)c3cscn3)cc2OC)ccc2c1C(C)=CC(C)(C)N2 [Compound 1-30, 5-(2-Methoxyphenylaminomethyl)-6-[2-methoxy-4-(thiazol-4-ylcarbonyloxy)phenyl]-2,2,4-trimethyl-1,2-dihydroquinoline]
92% | COc1ccccc1NCc1c(-c2ccc(OC(=O)c3ccc(C)nc3)cc2OC)ccc2c1C(C)=CC(C)(C)N2 [Compound 1-31, 6-[2-Methoxy-4-(6-methylpyridin-3-ylcarbonyloxy)phenyl]-5-(2-methoxyphenylaminomethyl)-2,2,4-trimethyl-1,2-dihydroquinoline]
90% | COc1ccccc1NCc1c(-c2ccc(OC(=O)c3cccnc3OC)cc2OC)ccc2c1C(C)=CC(C)(C)N2 [Compound 1-32, 6-[2-Methoxy-4-(2-methoxypyridin-3-ylcarbonyloxy)phenyl]-5-(2-methoxyphenylaminomethyl)-2,2,4-trimethyl-1,2-dihydroquinoline]
100% | COc1cc(OC(=O)c2ccoc2)ccc1-c1ccc2c(c1CNc1cc(F)ccc1C)C(C)=CC(C)(C)N2 [Compound 1-33, 5-(5-Fluoro-2-methylphenylaminomethyl)-6-[4-(furan-3-ylcarbonyloxy)-2-methoxyphenyl]-2,2,4-trimethyl-1,2-dihydroquinoline]
100% | COc1cc(OC(=O)c2ccncc2)ccc1-c1ccc2c(c1CNc1cc(F)ccc1C)C(C)=CC(C)(C)N2 [Compound 1-34, 5-(5-Fluoro-2-methylphenylaminomethyl)-6-[2-methoxy-4-(pyridin-4-ylcarbonyloxy)phenyl]-2,2,4-trimethyl-1,2-dihydroquinoline]
100% | COc1cc(OC(=O)c2ccccc2F)ccc1-c1ccc2c(c1CNc1cc(F)ccc1C)C(C)=CC(C)(C)N2 [Compound 1-35, 6-[4-(2-Fluorobenzoyloxy)-2-methoxyphenyl]-5-(5-fluoro-2-methylphenylaminomethyl)-2,2,4-trimethyl-1,2-dihydroquinoline]
100% | COc1cc(OC(=O)c2cccnc2C)ccc1-c1ccc2c(c1CNc1cc(F)ccc1C)C(C)=CC(C)(C)N2 [Compound 1-38, 5-(5-Fluoro-2-methylphenylaminomethyl)-6-[2-methoxy-4-(2-methylpyridin-3-ylcarbonyloxy)phenyl]-2,2,4-trimethyl-1,2-dihydroquinoline]
100% | COc1cc(OC(=O)c2ccccc2SC)ccc1-c1ccc2c(c1CNc1cc(F)ccc1C)C(C)=CC(C)(C)N2 [Compound 1-39, 5-(5-Fluoro-2-methylphenylaminomethyl)-6-[4-(2-methylthiobenzoyloxy)-2-methoxyphenyl]-2,2,4-trimethyl-1,2-dihydroquinoline]
100% | COc1cc(OC(=O)c2cccnc2OC)ccc1-c1ccc2c(c1CNc1cc(F)ccc1C)C(C)=CC(C)(C)N2 [Compound 1-41, 5-(5-Fluoro-2-methylphenylaminomethyl)-6-[2-methoxy-4-(2-methoxypyridin-3-ylcarbonyloxy)phenyl]-2,2,4-trimethyl-1,2-dihydroquinoline]
